Experiments:
Test in all cases: Test E pre-/postemergence greenhouse test, plant response rating 0-100
Format in all cases: in vivo
[1] = test system: arrowleaf sida (Sida rhombifolia); settings: for Arrowleaf Sida plant response rating: Preemergence
In short: (§1)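 Rated visually against controls 14-21 days after treatment on a 0-100 scale (100 = complete control). Pre- and postemergence sprays used a non-phytotoxic solvent mixture with surfactant. Preemergence seeds were in silt loam; postemergence plants were in peat-based medium at the 1- to 4-leaf stage (2-18 cm).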

corn (Zea mays) = settings: scale 0 to 100; for Corn plant response rating: Preemergence
In short: as §1

[2] = test system: barnyardgrass (Echinochloa crus-galli); settings: scale 0 to 100; for Barnyardgrass plant response rating: Preemergence
In short: as §1

soybean (Glycine max) = settings: scale 0 to 100; for Soybean plant response rating: Preemergence
In short: as §1

[3] = test system: waterhemp (common waterhemp, Amaranthus rudis); settings: scale 0 to 100; for Waterhemp plant response rating: Preemergence
In short: as §1

[4] = test system: palmer pigweed (Amaranthus palmeri); settings: scale 0 to 100; for Pigweed, Palmer plant response rating: Preemergence
In short: as §1

[5] = test system: Brazilian crabgrass (Digitaria horizontalis); settings: Digitaria horizontalis, post-emergence, Postemergence, scale 0 to 100, read-out: Plant response rating, Crabgrass, Brazil
In short: as §1

[6] = test system: fall panicum (Panicum dichotomiflorum); settings: scale 0 to 100; for Panicum, Fall plant response rating: Preemergence
In short: as §1

[7] = test system: wild poinsettia (Euphorbia heterophylla); settings: scale 0 to 100; for Poinsettia, Wild plant response rating: Preemergence
In short: as §1

[8] = test system: hairy beggarticks (Bidens pilosa); settings: scale 0 to 100; for Beggarticks plant response rating: Preemergence
In short: as §1

[9] = test system: sandbur (southern sandbur, Cenchrus echinatus); settings: scale 0 to 100; for Sandbur plant response rating: Preemergence
In short: as §1

For `O=C(c1ccccc1)c1cn(CO)nc1-c1cc(Cl)cc(Cl)c1` [Compound 15, [3-(3,5-dichlorophenyl)-1-(hydroxymethyl)-1H-pyrazol-4-yl]phenylmethanone], the “Arrowleaf Sida plant response rating” value ([1]; 31 g ai/ha, scale 0 to 100) was 25, the “Arrowleaf Sida plant response rating” value ([1]; 62 g ai/ha, scale 0 to 100) was 30 and the “Arrowleaf Sida plant response rating” value ([1]; 125 g ai/ha, scale 0 to 100) was 90. For the same compound, the “Arrowleaf Sida plant response rating” value ([1]; 250 g ai/ha, scale 0 to 100) was 100, the “Arrowleaf Sida plant response rating” value ([1]; 500 g ai/ha, scale 0 to 100) was 98 and the pest or weed control at 31 g/ha ([1]; Sida rhombifolia, post-emergence, Postemergence, 31 g ai/ha, scale 0 to 100) was 98%. For the same compound, the pest or weed control at 62 g/ha ([1]; Sida rhombifolia, post-emergence, Postemergence, 62 g ai/ha, scale 0 to 100) was 90%, the pest or weed control at 125 g/ha ([1]; Sida rhombifolia, post-emergence, Postemergence, 125 g ai/ha, scale 0 to 100) was 98% and the pest or weed control at 250 g/ha ([1]; Sida rhombifolia, post-emergence, Postemergence, 250 g ai/ha, scale 0 to 100) was 98%. The pest or weed control at 500 g/ha ([1]; Sida rhombifolia, post-emergence, Postemergence, 500 g ai/ha, scale 0 to 100 (0 no effect, 100 complete control)) was 98%, the “Corn plant response rating” value (corn (Zea mays); 31 g ai/ha) was 0 and the “Corn plant response rating” value (corn (Zea mays); 62 g ai/ha) was 0. The “Corn plant response rating” value (corn (Zea mays); 125 g ai/ha) was 0, the “Corn plant response rating” value (corn (Zea mays); 250 g ai/ha) was 0 and the “Corn plant response rating” value (corn (Zea mays); 500 g ai/ha) was 0. The Corn plant response rating (crop injury, 0 = no effect, 100 = complete kill) at 31 g/ha (corn (Zea mays); Zea mays, post-emergence, Postemergence, 31 g ai/ha) was 0%, the Corn plant response rating (crop injury, 0 = no effect, 100 = complete kill) at 62 g/ha (corn (Zea mays); Zea mays, post-emergence, Postemergence, 62 g ai/ha) was 0% and the Corn plant response rating (crop injury, 0 = no effect, 100 = complete kill) at 125 g/ha (corn (Zea mays); Zea mays, post-emergence, Postemergence, 125 g ai/ha) was 0%. The Corn plant response rating (crop injury, 0 = no effect, 100 = complete kill) at 250 g/ha (corn (Zea mays); Zea mays, post-emergence, Postemergence, 250 g ai/ha) was 0%, the Corn plant response rating (crop injury, 0 = no effect, 100 = complete kill) at 500 g/ha (corn (Zea mays); Zea mays, post-emergence, Postemergence, 500 g ai/ha) was 0% and the pest or weed control at 31 g/ha ([2]; Echinochloa crus-galli, post-emergence, Postemergence, 31 g ai/ha) was 0%. The pest or weed control at 62 g/ha ([2]; Echinochloa crus-galli, post-emergence, Postemergence, 62 g ai/ha) was 0%, the pest or weed control at 125 g/ha ([2]; Echinochloa crus-galli, post-emergence, Postemergence, 125 g ai/ha) was 0% and the pest or weed control at 250 g/ha ([2]; Echinochloa crus-galli, post-emergence, Postemergence, 250 g ai/ha) was 0%. The pest or weed control at 500 g/ha ([2]; Echinochloa crus-galli, post-emergence, Postemergence, 500 g ai/ha) was 0%, the “Barnyardgrass plant response rating” value ([2]; 31 g ai/ha) was 0 and the “Barnyardgrass plant response rating” value ([2]; 62 g ai/ha) was 0. The “Barnyardgrass plant response rating” value ([2]; 125 g ai/ha) was 0, the “Barnyardgrass plant response rating” value ([2]; 250 g ai/ha) was 0 and the “Barnyardgrass plant response rating” value ([2]; 500 g ai/ha) was 0. It also gave a plant injury at 31 g/ha (soybean (Glycine max); Glycine max, post-emergence, Postemergence, 31 g ai/ha) of 0%, a plant injury at 62 g/ha (soybean (Glycine max); Glycine max, post-emergence, Postemergence, 62 g ai/ha) of 0% and a plant injury at 125 g/ha (soybean (Glycine max); Glycine max, post-emergence, Postemergence, 125 g ai/ha) of 0%. The plant injury at 250 g/ha (soybean (Glycine max); Glycine max, post-emergence, Postemergence, 250 g ai/ha) was 0%, the plant injury at 500 g/ha (soybean (Glycine max); Glycine max, post-emergence, Postemergence, 500 g ai/ha) was 0% and the “Soybean plant response rating” value (soybean (Glycine max); 31 g ai/ha) was 0. For the same compound, the “Soybean plant response rating” value (soybean (Glycine max); 62 g ai/ha) was 0, the “Soybean plant response rating” value (soybean (Glycine max); 125 g ai/ha) was 0 and the “Soybean plant response rating” value (soybean (Glycine max); 250 g ai/ha) was 0. For the same compound, the “Soybean plant response rating” value (soybean (Glycine max); 500 g ai/ha) was 0, the pest or weed control at 31 g/ha ([3]; Amaranthus tuberculatus, post-emergence, Postemergence, 31 g ai/ha) was 80% and the pest or weed control at 62 g/ha ([3]; Amaranthus tuberculatus, post-emergence, Postemergence, 62 g ai/ha) was 98%. For the same compound, the pest or weed control at 125 g/ha ([3]; Amaranthus tuberculatus, post-emergence, Postemergence, 125 g ai/ha) was 95%, the pest or weed control at 250 g/ha ([3]; Amaranthus tuberculatus, post-emergence, Postemergence, 250 g ai/ha) was 100% and the pest or weed control at 500 g/ha ([3]; Amaranthus tuberculatus, post-emergence, Postemergence, 500 g ai/ha) was 100%. The “Waterhemp plant response rating” value ([3]; 31 g ai/ha) was 0, the “Waterhemp plant response rating” value ([3]; 62 g ai/ha) was 70 and the “Waterhemp plant response rating” value ([3]; 125 g ai/ha) was 90. The “Waterhemp plant response rating” value ([3]; 250 g ai/ha) was 75, the “Waterhemp plant response rating” value ([3]; 500 g ai/ha) was 100 and the pest or weed control at 31 g/ha ([4]; Amaranthus palmeri, post-emergence, Postemergence, 31 g ai/ha) was 35%. It also gave a pest or weed control at 62 g/ha ([4]; Amaranthus palmeri, post-emergence, Postemergence, 62 g ai/ha) of 75%, a pest or weed control at 125 g/ha ([4]; Amaranthus palmeri, post-emergence, Postemergence, 125 g ai/ha) of 75% and a pest or weed control at 250 g/ha ([4]; Amaranthus palmeri, post-emergence, Postemergence, 250 g ai/ha) of 98%. The pest or weed control at 500 g/ha ([4]; Amaranthus palmeri, post-emergence, Postemergence, 500 g ai/ha) was 100%, the “Pigweed, Palmer plant response rating” value ([4]; 31 g ai/ha) was 0 and the “Pigweed, Palmer plant response rating” value ([4]; 62 g ai/ha) was 0. For the same compound, the “Pigweed, Palmer plant response rating” value ([4]; 125 g ai/ha) was 0, the “Pigweed, Palmer plant response rating” value ([4]; 250 g ai/ha) was 65 and the “Pigweed, Palmer plant response rating” value ([4]; 500 g ai/ha) was 100. It also gave a pest or weed control at 31 g/ha ([5]; 31 g ai/ha) of 0%, a pest or weed control at 62 g/ha ([5]; 62 g ai/ha) of 0% and a pest or weed control at 125 g/ha ([5]; 125 g ai/ha) of 0%. For the same compound, the pest or weed control at 250 g/ha ([5]; 250 g ai/ha) was 0%, the pest or weed control at 500 g/ha ([5]; 500 g ai/ha) was 0% and the pest or weed control at 31 g/ha ([6]; Panicum dichotomiflorum, post-emergence, Postemergence, 31 g ai/ha) was 0%. For the same compound, the pest or weed control at 62 g/ha ([6]; Panicum dichotomiflorum, post-emergence, Postemergence, 62 g ai/ha) was 0%, the pest or weed control at 125 g/ha ([6]; Panicum dichotomiflorum, post-emergence, Postemergence, 125 g ai/ha) was 0% and the pest or weed control at 250 g/ha ([6]; Panicum dichotomiflorum, post-emergence, Postemergence, 250 g ai/ha) was 0%. For the same compound, the pest or weed control at 500 g/ha ([6]; Panicum dichotomiflorum, post-emergence, Postemergence, 500 g ai/ha) was 35%, the “Panicum, Fall plant response rating” value ([6]; 31 g ai/ha) was 0 and the “Panicum, Fall plant response rating” value ([6]; 62 g ai/ha) was 0. For the same compound, the “Panicum, Fall plant response rating” value ([6]; 125 g ai/ha) was 0, the “Panicum, Fall plant response rating” value ([6]; 250 g ai/ha) was 0 and the “Panicum, Fall plant response rating” value ([6]; 500 g ai/ha) was 0. For the same compound, the pest or weed control at 31 g/ha ([7]; Euphorbia heterophylla, post-emergence, Postemergence, 31 g ai/ha, read-out: Plant response rating, Poinsettia, Wild) was 0%, the pest or weed control at 62 g/ha ([7]; Euphorbia heterophylla, post-emergence, Postemergence, 62 g ai/ha, read-out: Plant response rating, Poinsettia, Wild) was 0% and the pest or weed control at 125 g/ha ([7]; Euphorbia heterophylla, post-emergence, Postemergence, 125 g ai/ha, read-out: Plant response rating, Poinsettia, Wild) was 0%. The pest or weed control at 250 g/ha ([7]; Euphorbia heterophylla, post-emergence, Postemergence, 250 g ai/ha, read-out: Plant response rating, Poinsettia, Wild) was 0%, the pest or weed control at 500 g/ha ([7]; Euphorbia heterophylla, post-emergence, Postemergence, 500 g ai/ha, read-out: Plant response rating, Poinsettia, Wild) was 0% and the “Poinsettia, Wild plant response rating” value ([7]; 125 g ai/ha) was 0. The “Poinsettia, Wild plant response rating” value ([7]; 250 g ai/ha) was 0, the “Poinsettia, Wild plant response rating” value ([7]; 500 g ai/ha) was 0 and the pest or weed control at 31 g/ha ([8]; Bidens pilosa, post-emergence, Postemergence, 31 g ai/ha) was 90%. It also gave a pest or weed control at 62 g/ha ([8]; Bidens pilosa, post-emergence, Postemergence, 62 g ai/ha) of 98%, a pest or weed control at 125 g/ha ([8]; Bidens pilosa, post-emergence, Postemergence, 125 g ai/ha) of 98% and a pest or weed control at 250 g/ha ([8]; Bidens pilosa, post-emergence, Postemergence, 250 g ai/ha) of 100%. The pest or weed control at 500 g/ha ([8]; Bidens pilosa, post-emergence, Postemergence, 500 g ai/ha) was 98%, the “Beggarticks plant response rating” value ([8]; 31 g ai/ha) was 0 and the “Beggarticks plant response rating” value ([8]; 62 g ai/ha) was 0. The “Beggarticks plant response rating” value ([8]; 125 g ai/ha) was 0, the “Beggarticks plant response rating” value ([8]; 250 g ai/ha) was 25 and the “Beggarticks plant response rating” value ([8]; 500 g ai/ha) was 80. For the same compound, the pest or weed control at 31 g/ha ([9]; Cenchrus echinatus, post-emergence, Postemergence, 31 g ai/ha) was 0%, the pest or weed control at 62 g/ha ([9]; Cenchrus echinatus, post-emergence, Postemergence, 62 g ai/ha) was 0% and the pest or weed control at 125 g/ha ([9]; Cenchrus echinatus, post-emergence, Postemergence, 125 g ai/ha) was 0%. The pest or weed control at 250 g/ha ([9]; Cenchrus echinatus, post-emergence, Postemergence, 250 g ai/ha) was 0%, the pest or weed control at 500 g/ha ([9]; Cenchrus echinatus, post-emergence, Postemergence, 500 g ai/ha) was 0% and the “Sandbur plant response rating” value ([9]; 31 g ai/ha) was 0. For the same compound, the “Sandbur plant response rating” value ([9]; 62 g ai/ha) was 30, the “Sandbur plant response rating” value ([9]; 125 g ai/ha) was 50 and the “Sandbur plant response rating” value ([9]; 250 g ai/ha) was 40. For the same compound, the “Sandbur plant response rating” value ([9]; 500 g ai/ha) was 35.

— US10167262B2, “Herbicidal substituted 3-arylpyrazoles” (FMC CORPORATION, priority 2014, dated 2019)
